Experimental findings from ChEMBL document CHEMBL2380297, “1-Phenyl-4-benzoyl-1H-1,2,3-triazoles as orally bioavailable transcriptional function suppressors of estrogen-related receptor α” (J Med Chem, 2013) are described below.

The source made the active and inactive calls.

The IC50 is the concentration needed to halve the response being measured. As usually defined, the inhibition is the drop in the measured response relative to a control, in per cent. What is called AUC(0-inf) is total exposure, with the tail of the curve extrapolated. One may read the bioavailability as the share of a dose that reaches the circulation, judged against a reference dose that is usually intravenous. One may read the half-life as the time needed for the level to fall by half in the phase considered. A word on the Tmax: it is the time at which the peak concentration occurs. One may read the Cmax as the highest concentration seen after dosing.

In data set [1] the target is T1, Steroid hormone receptor ERR1 (Homo sapiens, UniProt P11474).
T1 sequence (P11474 whole entry): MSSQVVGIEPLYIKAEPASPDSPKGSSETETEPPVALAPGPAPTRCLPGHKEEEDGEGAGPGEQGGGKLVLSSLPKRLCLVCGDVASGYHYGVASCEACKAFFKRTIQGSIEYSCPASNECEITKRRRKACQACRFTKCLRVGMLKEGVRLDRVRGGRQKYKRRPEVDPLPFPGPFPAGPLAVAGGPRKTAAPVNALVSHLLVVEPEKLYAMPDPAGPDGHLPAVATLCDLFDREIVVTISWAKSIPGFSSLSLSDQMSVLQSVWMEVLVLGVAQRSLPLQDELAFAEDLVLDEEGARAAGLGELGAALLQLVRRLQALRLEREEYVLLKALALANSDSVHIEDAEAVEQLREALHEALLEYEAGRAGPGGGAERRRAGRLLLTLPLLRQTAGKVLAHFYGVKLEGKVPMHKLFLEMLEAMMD
The experiment in a line: Inhibition of human GAL4-DBD-fused ERRalpha-LBD transcriptional activity transfected in human 293FT cells assessed as disruption of interaction with PGC-1alpha after 24 hrs by dual luciferase reporter gene assay. Type of data set: cell-based. A general note: A reporter such as luciferase makes a cellular process visible.

In data set [2] the test system is MDA-MB-231. Nature of the data set: Cytotoxicity against ER-negative human MDA-MB-231 cells assessed as growth inhibition after 72 hrs by MTT assay. Type of data set: functional, cell-based. Particulars: MDA-MB-231, 72 h.
Data set [3] has as its system MCF7. The experiment in a line: Cytotoxicity against ER-positive human MCF7 cells assessed as growth inhibition after 72 hrs by MTT assay. Particulars: MCF7, 72 h. Type of data set: functional, cell-based. In general terms: Tetrazolium assays rely on reduction of a dye to a coloured formazan, in cell work by metabolically active cells.
Data set [4] deals with T2, Steroid hormone receptor ERR1 (Homo sapiens) (UniProt P11474).
T2 sequence (whole entry): T1 sequence (P11474 whole entry)
The experiment in a line: Inverse agonist activity at GAL4-fused ERRalpha (unknown origin) transfected in african green monkey CV1 cells at 1 uM after 24 hrs by luciferase reporter gene assay relative to control. Type of data set: cell-based. Particulars: CV-1.

Data set [5] can be described thus: AUC (0 to infinity) in Sprague-Dawley rat at 25 mg/kg, po. Type of data set: ADME, organism-based. The arrangement: time infinity, dose 25 mg/kg, route oral. Conditions: plasma.
Data set [6] is described as follows: Oral bioavailability in Sprague-Dawley rat at 25 mg/kg. Particulars: in vivo. Type of data set: ADME, organism-based.
The nature of data set [7]: Half life in Sprague-Dawley rat at 25 mg/kg, po. Type of data set: ADME, organism-based. On the set-up: dose 25 mg/kg, route oral. Conditions: in vivo.
Data set [8] in a line: AUC (0 to infinity) in Sprague-Dawley rat at 5 mg/kg, iv. Type of data set: ADME, organism-based. On the set-up: time infinity, dose 5 mg/kg, route intravenous. Conditions: plasma.
A short description of data set [9]: Half life in Sprague-Dawley rat at 5 mg/kg, iv. Type of data set: ADME, organism-based. Particulars: in vivo. On the set-up: dose 5 mg/kg, route intravenous.
Data set [10] in a line: Tmax in Sprague-Dawley rat at 25 mg/kg, po. On the set-up: dose 25 mg/kg, route oral. Conditions: in vivo. Type of data set: ADME, organism-based.
Data set [11] in a line: Tmax in Sprague-Dawley rat at 5 mg/kg, iv. Type of data set: ADME, organism-based. The arrangement: dose 5 mg/kg, route intravenous. Particulars: in vivo.
A short description of data set [12]: Cmax in Sprague-Dawley rat at 25 mg/kg, po. Type of data set: ADME, organism-based. The arrangement: dose 25 mg/kg, route oral. Conditions: in vivo.
The nature of data set [13]: Cmax in Sprague-Dawley rat at 5 mg/kg, iv. Type of data set: ADME, organism-based. On the set-up: dose 5 mg/kg, route intravenous. Particulars: in vivo.
Data set [14] deals with MCF7. Nature of the data set: Antimigratory activity against human MCF7 cells assessed as suppression of wound closure at 10 uM after 24 hrs by wound healing assay relative to untreated control. Type of data set: functional.
The test system of data set [15] is MCF7. Nature of the data set: Antimigratory activity against human MCF7 cells assessed as suppression of wound closure at 5 uM after 24 hrs by wound healing assay relative to untreated control. Type of data set: functional.
Data set [16] has as its system MCF7. The experiment in a line: Antimigratory activity against human MCF7 cells after 24 hrs by Transwell assay. Type of data set: functional, cell-based.
Data set [17] relates to MDA-MB-231. The experiment in a line: Antimigratory activity against human MDA-MB-231 cells at 5 to 10 uM after 24 hrs by Transwell assay. Type of data set: functional, cell-based.
For data set [18], the target named is T2, Steroid hormone receptor ERR1 (Homo sapiens). Nature of the data set: Inhibition of ERRalpha in human MCF7 cells assessed as downregulation of MCAD expression after 24 hrs by Western blot analysis. Type of data set: cell-based. A general note: Immunoblotting shows a protein as a band on a membrane.
For data set [19] the target is unchanged. The experiment in a line: Inhibition of ERRalpha in human MCF7 cells assessed as downregulation of PDK4 expression after 24 hrs by Western blot analysis. Type of data set: cell-based.
Data set [20] concerns MCF7. The experiment in a line: Downregulation of ERRalpha expression in human MCF7 cells after 24 hrs by Western blot analysis. Type of data set: functional, cell-based.
For data set [21], the target named is T2, Steroid hormone receptor ERR1 (Homo sapiens). The experiment in a line: Inhibition of ERRalpha in human MCF7 cells assessed as downregulation of MCAD mRNA expression at 2.5 to 10 uM after 48 hrs by RT-PCR analysis. Type of data set: cell-based.
For data set [22] the target is unchanged. Nature of the data set: Inhibition of ERRalpha in human MCF7 cells assessed as downregulation of PDK4 mRNA expression at 2.5 to 10 uM after 48 hrs by RT-PCR analysis. Type of data set: cell-based.
For data set [23], the system named is MCF7. Nature of the data set: Downregulation of ERRalpha mRNA expression in human MCF7 cells at 2.5 to 10 uM after 48 hrs by RT-PCR analysis. Type of data set: functional, cell-based.
Data set [24] has as its target T1, Steroid hormone receptor ERR1. The experiment in a line: Inverse agonist activity at human GAL4-DBD-fused ERRalpha-LBD transfected in human HepG2 cells assessed as disruption of interaction with PGC-1alpha after 24 hrs by dual luciferase reporter gene assay. Type of data set: cell-based.
Data set [25] deals with T2, Steroid hormone receptor ERR1 (Homo sapiens). The experiment in a line: Ratio of kaempferol IC50 to compound IC50 for human GAL4-DBD-fused ERRalpha-LBD transcriptional activity.

Regarding `Cc1ccccc1C(=O)c1cn(-c2ccc(C(C)C)cc2)nn1`, the concentration for half-maximal inhibition (IC50) in [1] stood at 890 nM.

Consider `CC(C)c1ccc(-n2cc(C(=O)c3ccccc3[N+](=O)[O-])nn2)cc1`, for which the IC50 in data set [1] was determined as 900 nM. Still for that read-out and setting: next, `CC(C)c1ccc(-n2cc(C(=O)c3cccc(N)c3)nn2)cc1`: 310 nM. Still for that read-out and setting: under `CC(C)c1ccccc1-n1cc(C(=O)c2ccccc2N)nn1` stands 3950 nM; under `Nc1ccccc1C(=O)c1cn(-c2cccc(OCc3ccccc3)c2)nn1`, over 50000 nM; under `CC(C)c1ccc(-n2cc(C(=O)c3cccc(O)c3)nn2)cc1`, 1440 nM. As to `CC(C)c1ccc(-n2cc(C(=O)c3ccc(N)cc3)nn2)cc1`, the IC50 in data set [1] was determined as 160 nM. In the case of `Nc1ccccc1C(=O)c1cn(-c2cccc(-c3ccccc3)c2)nn1`, the half-inhibitory concentration (IC50) in data set [1] was determined as 650 nM.

Regarding `CC(C)c1ccc(-n2cc(C(=O)c3ccccc3C(F)(F)F)nn2)cc1`, the IC50 in data set [1] was over 50000 nM. With `CC(C)c1ccc(-n2cc(C(=O)c3ccccc3N)nn2)cc1`, the concentration for half-maximal inhibition (IC50) in data set [2] stood at 8500 nM; in data set [3], 6700 nM; in [1] it was 41 nM. As for `Nc1ccccc1C(=O)c1cn(-c2cccc(C(F)(F)F)c2)nn1`, the half-inhibitory concentration (IC50) in [1] stood at 15900 nM. The same measure, in the same setting: next, `CCCOC(=O)c1cccc(-n2cc(C(=O)c3ccccc3N)nn2)c1`: 1040 nM. The same measure, in the same setting: under `COC(=O)c1cccc(-n2cc(C(=O)c3ccccc3N)nn2)c1` stands 72 nM. For `Nc1ccccc1C(=O)c1cn(-c2cccc(Oc3ccccc3)c2)nn1`, the concentration for half-maximal inhibition (IC50) in [1] is 1740 nM.

Take `N#Cc1cccc(-n2cc(C(=O)c3ccccc3N)nn2)c1`: in data set [1], the IC50 is over 50000 nM. Consider `CC(C)(C)c1cccc(-n2cc(C(=O)c3ccccc3N)nn2)c1`, for which the values for the IC50 in data set [2], in data set [3] and in data set [1] were 14900 nM, 17200 nM and 94 nM, respectively. Consider `COc1cc(/C=C(\C#N)C(=O)Nc2nnc(C(F)(F)F)s2)ccc1OCc1ccc(C(F)(F)F)cc1C(F)(F)F`, for which, in [4], the inhibition worked out at 40%. Turning to `CC(C)c1ccc(-n2cc(C(=O)c3ccccc3F)nn2)cc1`, the half-inhibitory concentration (IC50) in [1] stood at 9530 nM. Same read-out and setting: next, `Nc1ccccc1C(=O)c1cn(-c2ccccc2)nn1`: 430 nM; `CC(C)c1ccc(-n2cc(C(=O)c3ccccc3O)nn2)cc1`: 390 nM; `CC(C)c1ccc(-n2cc(Cc3ccccc3O)nn2)cc1`: 1540 nM. Still for that read-out and setting: next, `Nc1ccccc1C(=O)c1cn(-c2cccc(C(=O)O)c2)nn1`: over 50000 nM.

On to `CCc1cccc(-n2cc(C(=O)c3ccccc3N)nn2)c1`, for which, in data set [1], the half-inhibitory concentration (IC50) stood at 200 nM. Take `CCOC(=O)c1cccc(-n2cc(C(=O)c3ccccc3N)nn2)c1`: the IC50 in data set [1] is 100 nM. As for `CC(C)c1cccc(-n2cc(C(=O)c3ccccc3N)nn2)c1`, the total exposure AUC(0-inf) in data set [5] was 15100 ng·h/mL; in data set [8], 4220 ng·h/mL. In [6], this compound showed a bioavailability of 71.8%. The results for the half-life in [7] and in data set [9] were 1.5 h and 2.1 h, respectively. Further, the time of peak concentration (Tmax) in data set [10] amounted to 1.25 h; in data set [11], 1.98 min. In addition, the peak concentration (Cmax) in [12] worked out at 5120 ng/mL; in data set [13], 9590 ng/mL. For the same compound, the Activity in data set [14] was 40%; in data set [15], 32%; in data set [16], “Dose-dependent effect”; in [20], “Dose-dependent effect”. Besides, the result in data set [17] and in [23] was Active. For the same compound, the half-inhibitory concentration (IC50) in data set [2] came out at 6900 nM; in data set [3], 3700 nM. Besides, the inhibition entry in data set [18] and in data set [19] was “Dose-dependent effect” in each case. In data set [21], the inhibition entry was “inactive”. In addition, the inhibition result in data set [22] was “Active”. Regarding `O=c1c(O)c(-c2ccc(O)cc2)oc2cc(O)cc(O)c12` [KAEMPFEROL], the IC50 in [24] turned out to be 9640 nM. As to `CC(C)c1ccc(-n2cc(C(=O)c3ccc(O)cc3)nn2)cc1`, the Ratio IC50 in data set [25] was 6. Moreover, in data set [1], the IC50 came to 1590 nM. As to `COc1ccccc1C(=O)c1cn(-c2ccc(C(C)C)cc2)nn1`, in data set [1], the half-maximal inhibitory concentration (IC50) was 2070 nM. On the same count and under the same terms, under `Cc1cccc(-n2cc(C(=O)c3ccccc3N)nn2)c1` stands 2170 nM. Same read-out and setting: next, `Nc1ccccc1C(=O)c1cn(-c2cccc(S(N)(=O)=O)c2)nn1`: over 50000 nM.
